Source: patent US8722849B2, “Polypeptides” (Novo Nordisk A/S, priority 2011, dated 2014)
Values after ≈ are worked out from the molar mass of the structure shown. Read-outs that look alike come from different tables or passages of the source. Starred links: 1 amine or outer side, 2 acyl side, 3 side chain; linkers in the order of their positions; H or OH if unused. Positions of bridges follow the written chain, without caps; N, C: chain ends. Non-standard residues stand in square brackets, D forms with d. Residues, ends and D or L forms follow the SMILES beside them. *: point of attachment. C20 diacid = O=C(O)CCCCCCCCCCCCCCCCCCC(=O)*; γGlu = O=C(O)[C@H](CCC(=O)[*:2])N[*:1]; AEEA = NCCOCCOCC(=O)O

Tests used:
[1] = biological target: T1, rat amylin 3(a) receptor (rat calcitonin(a) receptor + rat RAMP3) (Rattus norvegicus, UniProt P32214+Q9JJ73); experiment: Assay (II)b functional cAMP FlashPlate assay, rat amylin receptor; assay type: cell-based; conditions: Table 11
T1 construct: expressed in transfected cells; host or cells: BHK tk'ts 13
T1 sequence (P32214 25-479 isoform P32214-2 limits assumed): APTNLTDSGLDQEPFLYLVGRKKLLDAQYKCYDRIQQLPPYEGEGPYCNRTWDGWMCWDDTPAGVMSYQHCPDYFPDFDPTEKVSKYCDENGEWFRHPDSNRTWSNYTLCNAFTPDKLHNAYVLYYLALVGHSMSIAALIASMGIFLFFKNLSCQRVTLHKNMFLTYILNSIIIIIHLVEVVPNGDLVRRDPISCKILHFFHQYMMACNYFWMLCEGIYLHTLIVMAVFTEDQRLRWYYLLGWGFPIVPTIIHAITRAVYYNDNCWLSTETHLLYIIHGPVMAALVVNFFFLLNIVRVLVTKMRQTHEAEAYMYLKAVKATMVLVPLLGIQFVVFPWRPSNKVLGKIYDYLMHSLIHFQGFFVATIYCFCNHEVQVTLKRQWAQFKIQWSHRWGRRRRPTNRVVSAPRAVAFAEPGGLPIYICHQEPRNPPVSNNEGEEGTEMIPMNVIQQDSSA
T1 sequence (Q9JJ73 23-147 partner): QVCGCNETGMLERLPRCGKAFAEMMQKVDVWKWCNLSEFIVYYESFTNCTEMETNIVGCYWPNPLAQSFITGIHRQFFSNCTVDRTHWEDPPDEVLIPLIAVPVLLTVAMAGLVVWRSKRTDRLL
How it was run: (§1)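 BHK tk'ts 13 cells transiently transfected with rat calcitonin(a) receptor, alone or with rat RAMP3 (amylin 3(a)), were stimulated 24 hours later with sample for 30 min in buffer containing IBMX. cAMP measured by competitive radioactive FlashPlate assay, scintillation read after 3 h detection incubation.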

[2] = biological target: T2, human calcitonin receptor (Homo sapiens, UniProt P30988); experiment: Assay (II)a functional CRE-luciferase assay, human calcitonin receptor; assay type: cell-based
T2 construct: expressed in transfected cells; host or cells: BHK570
T2 sequence (P30988 25-474): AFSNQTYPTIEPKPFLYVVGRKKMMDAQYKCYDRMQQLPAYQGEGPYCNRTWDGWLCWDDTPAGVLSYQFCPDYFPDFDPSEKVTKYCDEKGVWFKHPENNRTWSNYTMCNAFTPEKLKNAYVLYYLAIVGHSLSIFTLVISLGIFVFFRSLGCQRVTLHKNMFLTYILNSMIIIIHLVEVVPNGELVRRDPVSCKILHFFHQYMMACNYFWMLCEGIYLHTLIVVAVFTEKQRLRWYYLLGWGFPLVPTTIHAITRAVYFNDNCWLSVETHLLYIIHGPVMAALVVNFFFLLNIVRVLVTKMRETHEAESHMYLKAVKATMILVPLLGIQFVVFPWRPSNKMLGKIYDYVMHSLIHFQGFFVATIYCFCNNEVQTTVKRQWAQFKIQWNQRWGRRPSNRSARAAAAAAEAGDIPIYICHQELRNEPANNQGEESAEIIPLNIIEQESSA

[3] = Assay (IV) determination of solubility; assay type: physicochemical
How it was run: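 Polypeptide in water (~500 nmol/ml) mixed 1:1 with 100 mM glycylglycine (pH 3.0–5.0) or bistrispropane (pH 6.0–8.0) buffers. Held 18 hours at room temperature, then centrifuged. Polypeptide remaining in solution quantified by HPLC.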

[4] = biological target: T3, human amylin receptor (amylin 3(a) receptor: human calcitonin receptor + RAMP-3) (Homo sapiens, UniProt O60896+P30988); experiment: Assay (II)a functional CRE-luciferase assay, human amylin receptor; assay type: cell-based
T3 construct: expressed in transfected cells; host or cells: BHK570
T3 sequence (P30988 25-474): T2 sequence (P30988 25-474)
T3 sequence (O60896 24-148 partner): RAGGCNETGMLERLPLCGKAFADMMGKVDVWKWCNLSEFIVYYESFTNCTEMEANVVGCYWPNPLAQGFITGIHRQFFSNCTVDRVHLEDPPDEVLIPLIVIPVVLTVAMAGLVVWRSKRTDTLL

[5] = biological target: T4, rat calcitonin (a) receptor (Rattus norvegicus, UniProt P32214); experiment: Assay (II)b functional cAMP FlashPlate assay, rat calcitonin receptor; assay type: cell-based; conditions: Table 11; read-out: CTa receptor rat EC50
T4 construct: expressed in transfected cells; host or cells: BHK tk'ts 13
T4 sequence (P32214 25-479 isoform P32214-2 limits assumed): T1 sequence (P32214 25-479 isoform P32214-2 limits assumed)
How it was run: as §1

Question: What does the source list for CC[C@H](C)[C@H](NC(=O)[C@@H]1CCCN1C(=O)CNC(=O)[C@H](Cc1ccccc1)NC(=O)[C@H](CC(N)=O)NC(=O)[C@H](CC(N)=O)NC(=O)[C@H](CO)NC(=O)[C@H](CO)NC(=O)[C@H](CCCNC(=N)N)NC(=O)[C@H](Cc1cnc[nH]1)NC(=O)[C@H](CC(C)C)NC(=O)[C@H](Cc1ccccc1)NC(=O)[C@H](CCC(=O)O)NC(=O)[C@H](C)NC(=O)[C@H](CC(C)C)NC(=O)[C@H](CCCNC(=N)N)NC(=O)[C@H](CCC(N)=O)NC(=O)[C@@H](NC(=O)[C@H](C)NC(=O)[C@@H]1CSSC[C@H](NC(=O)[C@H](CCCCN)NC(=O)[C@@H](CCCNC(=N)N)NC(=O)[C@@H](CCCNC(=N)N)NC(=O)COCCOCCNC(=O)COCCOCCNC(=O)CC[C@H](NC(=O)CCCCCCCCCCCCCCCCCCC(=O)O)C(=O)O)C(=O)N[C@@H](CC(N)=O)C(=O)N[C@@H]([C@@H](C)O)C(=O)N[C@@H](C)C(=O)N[C@@H]([C@@H](C)O)C(=O)N1)[C@@H](C)O)C(=O)N[C@@H](CC(C)C)C(=O)N1CCC[C@H]1C(=O)N1CCC[C@H]1C(=O)N[C@H](C(=O)N[C@@H](CC(N)=O)C(=O)N[C@H](C(=O)NCC(=O)N[C@@H](CO)C(=O)N[C@@H](CC(N)=O)C(=O)N[C@H](C(=O)N[C@@H](Cc1ccc(O)cc1)C(N)=O)[C@@H](C)O)C(C)C)[C@@H](C)O [Example 37, N-alpha-[2-(2-{2-[2-(2-{2-[(S)-4-Carboxy-4-(19-carboxyheptadecanoylamino)butyrylamino]ethoxy}ethoxy)acetylamino]ethoxy}ethoxy)acetyl]-D-Arg-D-Arg-[Glu14,His17,Arg18]-pramlintide] ({C20 diacid-γGlu-AEEA-AEEA}-[dR][dR]KCNTATCATQRLAEFLHRSSNNFGPILPPTNVGSNTY-NH2; disulfide 4-9)?
Answer: EC50 [1]: 0.132 nM; EC50 ([2]; Table 7, human calcitonin (CTa) receptor): 0.642 nM; EC50 ([2]; Table 11, read-out: CTa receptor human EC50): 0.642 nM; solubility ([3]; pH 3, pH 3.0, read-out: Solubility pH 3.0): > 200 µM; solubility ([3]; pH 4, pH 4.0, 18 hours at room temperature, Table 2, read-out: Solubility pH 4.0): > 200 µM; solubility ([3]; pH 4, pH 4.0, read-out: Solubility pH 4.0): > 200 µM; solubility ([3]; pH 5, pH 5.0, read-out: Solubility pH 5.0): > 200 µM; solubility ([3]; pH 6, pH 6.0, read-out: Solubility pH 6.0): > 200 µM; solubility at 18 h ([3]; pH 6.5, read-out: Solubility pH 6.5): 124 µM (≈ 630 µg/mL); Solubility pH 7.0 (μM) ([3]; pH 7.0, 18 hours at room temperature, Table 3): 198 μM; solubility at 18 h ([3]; pH 7.0, Table 8, read-out: Solubility pH 7.0): 198 µM (≈ 1010 µg/mL); solubility at 18 h ([3]; pH 7.0, read-out: Solubility pH 7.0): 198 µM (≈ 1010 µg/mL); solubility ([3]; pH 7.5, pH 7.5, read-out: Solubility pH 7.5): > 200 µM; solubility ([3]; pH 8, pH 8.0, read-out: Solubility pH 8.0): > 200 µM; EC50 ([4]; Table 2, BHK amylin 3(a)-receptor/CRE-luc cells): 0.0832 nM; EC50 ([4]; Table 3, BHK amylin 3(a)-receptor/CRE-luc cells): 0.0832 nM; EC50 ([4]; Table 4): 0.0832 nM; EC50 ([4]; Table 5): 0.0832 nM; EC50 ([4]; Table 6, human amylin receptor): 0.0832 nM; EC50 ([4]; Table 7, human amylin receptor): 0.0832 nM; EC50 ([4]; Table 8): 0.0832 nM; EC50 ([4]; Table 11): 0.0832 nM; EC50 [5]: 1.89 nM
